Results reported in patent publication US4442044A, “Process for preparing monoesters and diesters of N-alkyl substituted amino methyl phosphonic acid” (priority 1983, dated 1984).

Tests used:
Test in all cases: post-emergent herbicidal activity, greenhouse
Type in all cases: in vivo
[1] = tested on: Cocklebur
Outline: (§1)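 Seeds or propagules sown in compacted top soil, grown 2–3 weeks in greenhouse, then sprayed with compound solution/suspension containing ~0.4% emulsifier at tabulated rates. Injury scored visually versus untreated controls at ~2 and 4 weeks after treatment, expressed as a herbicidal activity index.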

[2] = tested on: Wheat; details: Table II
Outline: as §1

[3] = tested on: Barnyardgrass
Outline: as §1

[4] = tested on: Rice; details: Table II
Outline: as §1

[5] = tested on: Hemp Sesbania; details: Table II, 4 WAT
Outline: as §1

[6] = tested on: Wild Buckwheat; details: Table II
Outline: as §1

[7] = tested on: Sugar Beet; details: Table II
Outline: as §1

[8] = tested on: Canada Thistle; details: Table I, 4 WAT
Outline: as §1

[9] = tested on: Yellow Nutsedge; details: Table I, 4 WAT, 11.2 kg/h
Outline: as §1

[10] = tested on: Johnsongrass; details: Table I, 4 WAT
Outline: as §1

[11] = tested on: Smartweed
Outline: as §1

[12] = tested on: Sorghum; details: Table II
Outline: as §1

[13] = tested on: Morningglory
Outline: as §1

[14] = tested on: Panicum Spp; details: Table II
Outline: as §1

[15] = tested on: Downy Brome
Outline: as §1

[16] = tested on: Velvetleaf
Outline: as §1

[17] = tested on: Lambsquarters
Outline: as §1

[18] = tested on: Crabgrass; details: Table II
Outline: as §1

[19] = tested on: Quackgrass; details: Table I, 4 WAT
Outline: as §1

[20] = tested on: Soybean; details: Table II
Outline: as §1

Measured: post-emergent herbicidal activity index

CC(C#N)OP(=O)(O)CNCC(=O)OCCCl (stereo not shown) [Example 7, glycine, N-[[(1-cyanoethoxy)hydroxyphosphinyl]methyl], 2-chloroethyl ester]
1 (25-49% control): [2]; 4 WAT, 0.06 kg/h | [4]; 4 WAT, 0.28 kg/h | [10]; 5.6 kg/h | [11]; Table II, 4 WAT, 0.06 kg/h | [13]; Table II, 2 WAT, 0.01 kg/h | [13]; Table II, 4 WAT, 0.28 kg/h | [15]; Table II, 4 WAT, 0.06 kg/h | [16]; Table II, 4 WAT, 0.06 kg/h | [17]; Table II, 2 WAT, 0.01 kg/h | [20]; 4 WAT, 0.28 kg/h
0 (0-24% control): [1]; Table II, 2 WAT, 0.01 kg/h | [1]; Table II, 4 WAT, 0.06 kg/h | [2]; 2 WAT, 0.01 kg/h | [3]; Table II, 2 WAT, 0.01 kg/h | [4]; 2 WAT, 0.01 kg/h | [4]; 4 WAT, 0.06 kg/h | [5]; 0.06 kg/h | [6]; 2 WAT, 0.01 kg/h | [6]; 4 WAT, 0.06 kg/h | [7]; 2 WAT, 0.01 kg/h | [7]; 4 WAT, 0.06 kg/h | [10]; 11.2 kg/h | [11]; Table II, 2 WAT, 0.01 kg/h | [12]; 2 WAT, 0.01 kg/h | [14]; 2 WAT, 0.01 kg/h | [15]; Table II, 2 WAT, 0.01 kg/h | [16]; Table II, 2 WAT, 0.01 kg/h | [17]; Table II, 4 WAT, 0.06 kg/h | [19]; 11.2 kg/h | [20]; 2 WAT, 0.01 kg/h | [20]; 4 WAT, 0.06 kg/h
4 (100% control): [1]; Table I, 4 WAT, 5.6 kg/h | [2]; 4 WAT, 5.6 kg/h | [5]; 5.6 kg/h | [7]; 4 WAT, 0.28 kg/h | [7]; 4 WAT, 5.6 kg/h | [11]; Table I, 4 WAT, 5.6 kg/h | [11]; Table I, 4 WAT, 11.2 kg/h | [11]; Table II, 4 WAT, 0.28 kg/h | [11]; Table II, 4 WAT, 5.6 kg/h | [14]; 4 WAT, 1.12 kg/h | [17]; Table I, 4 WAT, 5.6 kg/h | [17]; Table II, 4 WAT, 0.28 kg/h
3 (75-99% control): [1]; Table I, 4 WAT, 11.2 kg/h | [1]; Table II, 4 WAT, 5.6 kg/h | [2]; 4 WAT, 0.28 kg/h | [2]; 4 WAT, 1.12 kg/h | [3]; Table I, 4 WAT, 5.6 kg/h | [3]; Table II, 4 WAT, 1.12 kg/h | [3]; Table II, 4 WAT, 5.6 kg/h | [4]; 4 WAT, 1.12 kg/h | [4]; 4 WAT, 5.6 kg/h | [5]; 0.28 kg/h | [7]; 4 WAT, 1.12 kg/h | [9] | [11]; Table II, 4 WAT, 1.12 kg/h | [12]; 4 WAT, 5.6 kg/h | [14]; 4 WAT, 0.06 kg/h | [14]; 4 WAT, 0.28 kg/h | [14]; 4 WAT, 5.6 kg/h | [15]; Table II, 4 WAT, 5.6 kg/h | [16]; Table I, 4 WAT, 5.6 kg/h | [16]; Table I, 4 WAT, 11.2 kg/h | [16]; Table II, 4 WAT, 5.6 kg/h | [17]; Table I, 4 WAT, 11.2 kg/h | [18]; 4 WAT, 0.06 kg/h | [20]; 4 WAT, 5.6 kg/h
2 (50-74% control): [1]; Table II, 4 WAT, 0.28 kg/h | [1]; Table II, 4 WAT, 1.12 kg/h | [3]; Table I, 4 WAT, 11.2 kg/h | [3]; Table II, 4 WAT, 0.06 kg/h | [3]; Table II, 4 WAT, 0.28 kg/h | [5]; 1.12 kg/h | [6]; 4 WAT, 0.28 kg/h | [6]; 4 WAT, 1.12 kg/h | [6]; 4 WAT, 5.6 kg/h | [8]; 5.6 kg/h | [8]; 11.2 kg/h | [12]; 4 WAT, 0.06 kg/h | [12]; 4 WAT, 0.28 kg/h | [12]; 4 WAT, 1.12 kg/h | [13]; Table I, 4 WAT, 5.6 kg/h | [13]; Table I, 4 WAT, 11.2 kg/h | [13]; Table II, 4 WAT, 0.06 kg/h | [13]; Table II, 4 WAT, 1.12 kg/h | [13]; Table II, 4 WAT, 5.6 kg/h | [15]; Table I, 4 WAT, 5.6 kg/h | [15]; Table I, 4 WAT, 11.2 kg/h | [15]; Table II, 4 WAT, 0.28 kg/h | [15]; Table II, 4 WAT, 1.12 kg/h | [16]; Table II, 4 WAT, 0.28 kg/h | [16]; Table II, 4 WAT, 1.12 kg/h | [17]; Table II, 4 WAT, 1.12 kg/h | [17]; Table II, 4 WAT, 5.6 kg/h | [18]; 2 WAT, 0.01 kg/h | [19]; 5.6 kg/h | [20]; 4 WAT, 1.12 kg/h
